# Entries after “also recorded” stand apart in the source; their conditions may differ. Marks after values point to notes of the source that are not given here.
# How the values were obtained:
# [1] = tested on: acetylated histone 3 and histone 4; assay: Immunocytochemistry of acetylated H3 and H4 in brain sections; format: in vivo, mouse; settings: 1.2 g/kg/d i.p.; R6/2 mice at 90 days
# Protocol: Neuropathological Evaluation of Sodium Butyrate Treatment: Beginning at 21 days, R6/2 transgenic mice and wild-type littermate control mice were treated daily with the most optimal dose of sodium butyrate (1.2 g/kg), as determined by survival studies, or PBS intraperitoneal injections. Groups of 10 animals from each treatment paradigm were deeply anesthetized and transcardially perfused with 4% buffered paraformaldehyde at 90 days of age. Forty mice were used for neuropathological analysis, as previously described (Ferrante et al., 2002). Serially cut tissue sections were stained for Nissl substance and immunostained for huntingtin (monoclonal huntingtin antibody, 1:1,000 dilution, Chemicon International Inc.) and for acetylated histone 3 and histone 4 (dilution, 1:1,000, Upstate Biotechnology, Lake Placid, N.Y.), using a previously reported conjugated secondary antibody method in murine brain tissue samples (Ferrante et al., 2002). Specificity for the antisera used in this study was examined in each immunochemical experiment to assist with the interpretation of the results. Preabsorption with excess target proteins, omission of the primary antibodies, and omission of secondary antibodies were performed to determine the amount of background generated from the detection assay.
# huntingtin transgene = assay: Transgene expression (Western blot, whole brain, 1C2 antibody); format: in vivo, mouse; settings: 1.2 g/kg/d; R6/2 whole brain; vs PBS-treated R6/2
# Protocol: Transgene Expression: Transgene expression was determined in whole brain by Western blot analysis of groups (n=6) of sodium butyrate-treated (1.2 g/kg/d) and untreated R6/2 mice. Brain tissue was homogenized in a protease inhibitor cocktail buffer (Complete, Roche). Twenty Êg of protein (supernatant fraction) was resolved on 10% SDS-polyacrylamide gel (BioRad), transferred to PVDF membrane (BioRad), and probed with 1C2 antibody (Euromedex, France) specific for regions of expanded huntingtin, using a horseradish conjugated anti-rabbit secondary antibody, followed by chemiluminescent detection (Western Lightening™, New England Nuclear), and run with parallel blots probed against (-tubulin to normalize for gel loading.
# [2] = tested on: MKP-1, α-globin, β-globin, preproenkephalin mRNA; assay: Real-time PCR of brain mRNAs; format: in vivo, mouse; settings: Striatum, percentage of untreated R6/2, normalized to β-actin
# Protocol: Real-time PCR: Reverse transcription of 1 Êg total RNA was conducted with a SuperScript™ First-Strand Synthesis System for RT-PCR (Invitrogen) using random hexamer primers per the manufacturer's instructions. Quantitative real-time PCR studies utilized a Bio-Rad iCycler to follow the amplification of cDNA products by using SYBR_ Green PCR Master Mix (Applied Biosystems) through 50 PCR cycles (95_C for 30 s, 57_C for 1 min, 72_C for 1.5 min). Specific amplification of the target sequences was determined by melt curve analysis and DNA sequencing. Primer pair sequences were as follows: Preproenkephalin (XM—131313) GTGTCCAGGCCCGAGTTC and […]; MKP-1 (NM_013642) […] and […]; _-globin (NM_008218) CCACCCTGCCGATTTCA and CCGCAGMGGCAGCTTAAC; _-globin (NM_008220) […] and CCCAGCACAATCACGATCA; _-actin (X03672) AGGTATCCTGACCCTGAAG and […]. Expression of the mRNAs of interest was calculated using the equation: V=(1+E reference)(C t reference)/(1+E target) (C t target) to correct for potential differences in RNA input and PCR primer efficiencies (Livak and Schmittgen, 2001). V=relative value of target gene normalized to reference (_-actin), E=primer efficiency, C t=threshold crossing cycle number. Differences between genotype and treatment groups were assessed using an unpaired, two-tailed Student's t-test.
# [3] = tested on: acetylated histone H3 and acetylated histone H4; assay: Histone acetylation assay (Western blot, whole brain); format: in vivo, mouse
# Protocol: Histone Acetylation Assay: At 42 days, groups of 10 R6/2 mice and littermate wild-type control mice were treated with daily with the most optimal dose of sodium butyrate (1.2 g/kg), as determined by survival studies, or PBS via intraperitoneal injections for two weeks. The mice were euthanized at 56 days of age and the brains rapidly frozen and stored at −80 βC. Histone acetylation was determined, using a previously reported Western analysis method (Warrel et al., 1998). Histones were isolated from sodium butyrate treated and untreated whole brains. Western blot analysis for histone acetylation was performed using acetylated histone H3 and acetylated histone H4 antibodies (Upstate Biotechnology, Lake Placid, N.Y.). Protein levels were determined via Coomassie Protein Assay (Pierce, Rockford, Ill.). Each of the sample measurements was carried out twice, with the investigator performing the assays (JKK) blind to genotype and treatment group.
# [4] = tested on: 3-NP induced striatal lesions in R6/2 mice; assay: 3-Nitropropionic acid (3-NP) striatal toxicity in R6/2 mice; format: in vivo, mouse
# Protocol: 3-Nitropropionic Acid Administration: At six weeks, groups of 10 R6/2 mice were treated with daily 1.2 g/kg sodium butyrate or PBS via intraperitoneal injections for two weeks. At the start of week two, 3-nitropropionic acid (3-NP) (Sigma, St. Louis, Mo.) was dissolved in PBS (pH adjusted to 7.4), made fresh daily, and injected intraperitoneally 9 times at 12 hrs intervals (75 mg/kg) in R6/2 mice. The mice were euthanized 8-10 hrs after the last 3-NP injection, deeply anesthetized and transcardially perfused with buffered 4% paraformaldehyde and processed for histopathologic evaluation. Glycerol cryoprotected brains were frozen sectioned at 50 Êm, stained with cresyl violet, and quantitative analysis of lesion volumes was performed in serial sections as described below.
# Stereology/Quantitation: Serial-cut coronal tissue-sections beginning from the most rostral segment of the neostriatum to the level of the anterior commissure (Inter aural 5.34 mm/Bregma 1.54 mm to Inter aural 3.7 mm/Bregma −0.10 mm), were used for huntingtin aggregate analysis. Unbiased stereological counts of huntingtin-positive aggregates ([…]) were obtained from the neostriatum in 10 mice each from sodium butyrate-treated (1.2 g/kg) and PBS-treated R6/2 mice at 90 days using Neurolucida Stereo Investigator software (Microbrightfield, Colchester, Vt.). The total areas of the rostral neostriatum were defined in serial sections in which counting frames were randomly sampled. The optical dissector method was employed estimating the number of huntingtin-positive aggregates. Striatal neuron areas were analyzed by microscopic videocapture using a Windows-based image analysis system for area measurement (Optimas, Bioscan Incorporated, Edmonds, Wash.). The software automatically identifies and measures profiles. All computer identified cell profiles were manually verified as neurons and exported to Microsoft Excel. Cross-sectional areas were analyzed using Statview.
# Sp1 = settings: wild type B6CBA mice at 8 weeks of age after 2 weeks of treatment (Ryu, 2003a); cited from earlier work
smiles,measurement,setting,value
CCCC(=O)[O-].[Na+] [sodium butyrate],H3 and H4 acetylation immunostaining in brain sections,[1],increased acetylation of histone 4; also recorded: greatly enhanced
same,huntingtin transprotein expression-levels,huntingtin transgene,no differences
same,"PCR, NaBu Txd R6/2 vs R6/2","[2]; MKP-1 mRNA, p<0.05",181%^a
same,"PCR, NaBu Txd R6/2 vs R6/2",[2]; Preproenkephalin mRNA,101%
same,"PCR, NaBu Txd R6/2 vs R6/2","[2]; α-globin mRNA, p<0.01",206%^c
same,"PCR, NaBu Txd R6/2 vs R6/2","[2]; β-globin mRNA, p<0.02",215%^b
same,difference in increased acetylation of H3 and H4 between doses,[3]; 600 mg/kg/d vs 1.2 g/kg/d,did not observe any difference
same,H3 and H4 acetylation (Western blot),"[3]; 1.2 g/kg/d i.p. for two weeks from 42 days, R6/2 brain at 56 days",marked increase
same,mice with bilateral striatal lesions,"[4]; 1.2 g/kg/d i.p. two weeks, 3-NP in second week, 3-NP/PBS: seven of ten",two of ten
same,neuroprotection from 3-NP striatal damage,"[4]; 1.2 g/kg/d i.p. two weeks, 3-NP in second week, vs 3-NP and PBS-treated R6/2",prevented 3-NP striatal-induced damage; also recorded: marked neuroprotection; also recorded: nearly complete protection
same,reduction in lesion volume,"[4]; 1.2 g/kg/d i.p., vs 3-NP/PBS-treated R6/2 mice",73.3%
same,Sp1 acetylation,Sp1,significantly augmented
